{"source": "paper PMC4216168", "about": "“Ligand Binding and Activation of PPARγ by Firemaster® 550: Effects on Adipogenesis and Osteogenesis in Vitro” (Environmental Health Perspectives, 2014)", "key": {"[1]": {"molecular_target": "T1, human recombinant PPARγ ligand binding domain (LBD) (Homo sapiens, UniProt P37231)", "T1 construct": "purchased Invitrogen", "T1 sequence (P37231 238-503 limits assumed)": "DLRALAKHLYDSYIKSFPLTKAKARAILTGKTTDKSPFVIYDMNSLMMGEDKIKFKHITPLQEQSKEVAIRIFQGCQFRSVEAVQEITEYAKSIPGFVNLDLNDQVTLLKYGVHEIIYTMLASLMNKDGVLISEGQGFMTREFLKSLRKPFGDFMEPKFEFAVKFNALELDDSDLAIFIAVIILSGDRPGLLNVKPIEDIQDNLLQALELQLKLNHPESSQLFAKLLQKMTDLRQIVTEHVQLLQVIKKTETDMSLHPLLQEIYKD", "test": "biochemical", "conditions": "for binding to PPARγ LBD: over the concentration range tested (TBB 0.009–90 μM, TBPH 0.12–1,200 μM)", "description": "PPARγ ligand binding assay. Human PPARγ binding was quantified using the PolarScreen^TM PPARγ-Competitor Assay Kit (Invitrogen, Carlsbad, CA), according to the manufacturer’s instructions. […] Displacement of the fluorescent ligand, which has high polarization when bound to the PPARγ-LBD and low polarization when not bound, was assessed by measuring loss of fluorescence polarization using a SpectraMax M5 plate reader (Molecular Devices, Sunnyvale, CA). We calculated the IC50 (concentration required to reduce effect by 50%) and dissociation constants to compare the potency of the binding. Dissociation constants were calculated according to the following equation:\nIC50/[PPARγ green] = Kd,ligand/Kd,probe,\nwhere Kd,probe is the dissociation constant calculated from titration of 1.25 nM Fluormone™ PPARγ green with the PPARγ LBD."}, "[2]": {"parameters": "method as in Patisaul et al. 2013; Roberts et al. 2012", "conditions": "in vivo and in vitro; ref Patisaul et al. 2013; Roberts et al. 2012; cited from earlier work"}, "estrogen receptor": {"tested_on": "estrogen receptor", "parameters": "method as in earlier work", "conditions": "ref Honkakoski et al. 2004; Kojima et al. 2013; Suzuki et al. 2013; cited from earlier work"}, "BMS2 cells [3]": {"tested_on": "BMS2 cells", "test": "Lipid accumulation (Nile red) in BMS2 cells"}, "BMS2 cells [4]": {"tested_on": "BMS2 cells", "test": "Necrosis by dead cell protease release (CytoTox-Glo) in BMS2 cultures", "conditions": "12 days; as high as 10 μg/mL (20 μM) FM550 or 20 μM TPP", "description": "(§1) Cell viability assays. […] Apoptosis and necrosis were assessed by caspase-3 activity (Caspase-Glo® 3/7 Assay; Promega) and dead cell protease release (CytoTox-Glo™ Cytotoxicity Assay; Promega), respectively, according to the manufacturer’s instructions."}, "[5]": {"tested_on": "Fabp4 mRNA in primary mouse bone marrow cultures", "test": "Fabp4 mRNA expression (qPCR) in primary bone marrow cultures", "format": "cell-based", "conditions": "7 days", "experimental": "(§2) mRNA expression. Total RNA was extracted, and genomic DNA was removed using the RNeasy Plus Mini Kit (QIAGEN, Valencia, CA). cDNA was prepared from total RNA using the GoScript™ Reverse Transcription System (Promega). All quantitative reverse-transcription polymerase chain reaction (qPCR) was performed using the GoTaq® qPCR Master Mix System (Promega). The following validated primers were purchased from Qiagen: 18s ribosomal RNA (Rn18s; QT01036875), fatty acid binding protein 4 (Fabp4; QT00091532), Sp7 transcription factor 7 [Osterix (Sp7; QT00293181)]. qPCR was performed using a 7500 Fast Real-Time PCR System (Applied Biosystems, Carlsbad, CA). Relative gene expression was determined according to the Pfaffl method ([Pfaffl 2001]), with the threshold value for Rn18s used for normalization. […] The quantification cycle value from naive, undifferentiated cultures prepared from 9-week-old male mice was used as the reference point. Data are reported as fold difference from naive."}, "[6]": {"tested_on": "primary mouse bone marrow cultures", "test": "Mineralization (Alizarin red) in primary bone marrow cultures", "conditions": "12 days; FM550 at 5 μg/mL (10 μM)"}, "[7]": {"tested_on": "primary mouse bone marrow cultures", "test": "Lipid accumulation (Nile red) in primary bone marrow cultures under osteogenic induction", "conditions": "12 days, molar value of FM550 estimated"}, "progesterone receptor": {"tested_on": "progesterone receptor", "parameters": "method as in earlier work", "conditions": "ref Honkakoski et al. 2004; Kojima et al. 2013; Suzuki et al. 2013; cited from earlier work"}, "human PPARγ1": {"molecular_target": "human PPARγ1 (Homo sapiens, UniProt P37231)", "sequence (P19793 whole entry)": "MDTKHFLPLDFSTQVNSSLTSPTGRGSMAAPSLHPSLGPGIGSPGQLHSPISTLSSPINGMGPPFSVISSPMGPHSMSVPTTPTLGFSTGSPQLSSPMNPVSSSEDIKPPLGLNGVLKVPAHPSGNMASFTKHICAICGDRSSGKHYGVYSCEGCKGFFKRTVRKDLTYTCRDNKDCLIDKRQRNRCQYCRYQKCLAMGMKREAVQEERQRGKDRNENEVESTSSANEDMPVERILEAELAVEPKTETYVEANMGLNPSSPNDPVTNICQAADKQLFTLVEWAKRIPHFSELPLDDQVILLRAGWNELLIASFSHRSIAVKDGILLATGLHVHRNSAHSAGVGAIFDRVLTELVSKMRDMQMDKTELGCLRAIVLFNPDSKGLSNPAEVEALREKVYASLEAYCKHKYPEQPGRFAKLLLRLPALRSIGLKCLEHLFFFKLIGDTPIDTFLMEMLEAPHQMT", "sequence (P37231 29-505)": "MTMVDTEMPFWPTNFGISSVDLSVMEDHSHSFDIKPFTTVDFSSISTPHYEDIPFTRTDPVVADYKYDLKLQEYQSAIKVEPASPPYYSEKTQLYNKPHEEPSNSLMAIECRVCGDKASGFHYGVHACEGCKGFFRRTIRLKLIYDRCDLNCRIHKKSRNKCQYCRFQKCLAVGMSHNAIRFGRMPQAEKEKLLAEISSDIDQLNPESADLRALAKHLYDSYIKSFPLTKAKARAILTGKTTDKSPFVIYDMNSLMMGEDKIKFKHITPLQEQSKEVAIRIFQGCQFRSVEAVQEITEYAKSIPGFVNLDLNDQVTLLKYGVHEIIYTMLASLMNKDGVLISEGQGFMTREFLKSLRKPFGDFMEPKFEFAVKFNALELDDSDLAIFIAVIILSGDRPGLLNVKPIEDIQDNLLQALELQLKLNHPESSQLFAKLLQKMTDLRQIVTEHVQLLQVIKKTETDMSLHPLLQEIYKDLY", "test": "PPRE-luciferase reporter assay in Cos-7 cells transfected with human PPARG1 and RXRA", "format": "cell-based", "from_the_text": "Reporter assays. Cos-7 cells were transiently transfected with vectors containing human PPARG1 (provided by V.K. Chatterjee, University of Cambridge, Cambridge, UK) ([Gurnell et al. 2000]) and human RXRA (plasmid 8882; Addgene, Cambridge, MA) ([Tontonoz et al. 1994]), with PPRE x3-TK-luc (plasmid 1015; Addgene) ([Kim et al. 1998]) and CMV-eGFP reporter constructs using Lipofectamine2000 (Invitrogen). Cultures were cotransfected with either pcDNA3 (Invitrogen) or dominant negative human PPARG (PPARγ-DN; provided by V.K. Chatterjee). […] After 24 hr incubation, cells were lysed in Glo Lysis Buffer and mixed with Bright Glo reagent (both from Promega, Madison, WI). […] Luminescence was normalized by GFP (green fluorescent protein) fluorescence in the same well. The normalized luminescence for each well was then divided by the normalized luminescence measured in control DN-PPARγ–transfected wells to determine the fold-change from DN-control."}, "[8]": {"tested_on": "primary mouse bone marrow cultures", "test": "Alkaline phosphatase activity in primary bone marrow cultures", "conditions": "12 days; FM550 at 5 μg/mL (10 μM)"}, "BMS2 cells [9]": {"tested_on": "BMS2 cells"}, "[10]": {"tested_on": "constitutive androstane receptor", "parameters": "method as in earlier work", "conditions": "ref Honkakoski et al. 2004; Kojima et al. 2013; Suzuki et al. 2013; cited from earlier work"}, "[11]": {"tested_on": "perilipin expression in BMS2 cells", "test": "Perilipin protein expression (immunoblot) in BMS2 cells", "conditions": "BMS2, 7 days"}, "[12]": {"tested_on": "Sp7 mRNA in primary mouse bone marrow cultures", "test": "Sp7 (Osterix) mRNA expression (qPCR) in primary bone marrow cultures", "format": "cell-based", "conditions": "7 days", "experimental": "as §2"}, "glucocorticoid receptor": {"tested_on": "glucocorticoid receptor", "parameters": "method as in earlier work", "conditions": "ref Honkakoski et al. 2004; Kojima et al. 2013; Suzuki et al. 2013; cited from earlier work"}, "pregnane X receptor": {"tested_on": "pregnane X receptor", "parameters": "method as in earlier work", "conditions": "ref Honkakoski et al. 2004; Kojima et al. 2013; Suzuki et al. 2013; cited from earlier work"}, "BMS2 cells [13]": {"tested_on": "BMS2 cells", "conditions": "12 days; as high as 10 μg/mL (20 μM) FM550 or 20 μM TPP", "description": "as §1"}, "PPARγ": {"tested_on": "PPARγ", "parameters": "method as in Springer et al. 2012", "conditions": "in vitro; ref Springer et al. 2012; cited from earlier work"}, "NIH 3T3L1 cells": {"tested_on": "NIH 3T3L1 cells", "parameters": "method as in Springer et al. 2012", "conditions": "ref Springer et al. 2012; cited from earlier work"}, "PPARα": {"tested_on": "PPARα", "parameters": "method as in Springer et al. 2012", "conditions": "in vitro; ref Springer et al. 2012; cited from earlier work"}}, "note": "pEC50, pIC50, pKd: −log10 of the molar value. Read-outs that look alike come from different tables or passages of the source.", "data": [{"smiles": "CCCCC(CC)COC(=O)c1cc(Br)c(Br)c(Br)c1Br", "note": "(centres unmarked) [TBB, tetrabromobenzoate]", "values": [{"measurement": "binding to PPARγ LBD", "setting": "[1]", "value": "did not demonstrate any binding"}]}, {"smiles": "CCCCC(CC)COC(=O)c1c(Br)c(Br)c(Br)c(Br)c1C(=O)OCC(CC)CCCC", "note": "(centres unmarked) [TBPH, bis-(2-ethylhexyl) tetrabromophthalate]", "values": [{"measurement": "metabolism into the monoester", "setting": "[2]", "value": "minimally metabolized into the monoester"}, {"measurement": "binding to PPARγ LBD", "setting": "[1]", "value": "did not demonstrate any binding"}]}, {"smiles": "O=P(Oc1ccccc1)(Oc1ccccc1)Oc1ccccc1", "note": "[TPP, triphenyl phosphate]", "values": [{"measurement": "estrogen receptor–mediated reporter activity", "setting": "estrogen receptor", "value": "activating"}, {"measurement": "maximal lipid accumulation", "setting": "BMS2 cells [3]; 7 days, naive-corrected, rosiglitazone at 1 μM", "value": "614 ± 60", "unit": "RFUs"}, {"measurement": "concentrations significantly inducing lipid accumulation", "setting": "BMS2 cells [3]; BMS2, 7 days, molar values of FM550 and ITP estimated", "value": "≥ 5", "unit": "µM"}, {"measurement": "necrotic protein release", "setting": "BMS2 cells [4]", "value": "no increase in necrotic protein release"}, {"measurement": "Fabp4 mRNA expression", "setting": "[5]", "value": "significantly increased mRNA expression of Fabp4"}, {"measurement": "mineralization", "setting": "[6]", "value": "significantly suppressed only alkaline phosphatase activity"}, {"measurement": "concentration inducing lipid accumulation", "setting": "[7]", "value": 10, "unit": "µM"}, {"measurement": "progesterone receptor–mediated reporter activity", "setting": "progesterone receptor", "value": "antagonizing"}, {"measurement": "pEC50", "setting": "human PPARγ1", "value": 5.10}, {"measurement": "concentrations significantly inducing PPARγ-driven reporter activity", "setting": "human PPARγ1; Cos7, 24 hr, molar values of FM550 and ITP estimated", "value": "≥ 10", "unit": "µM"}, {"measurement": "maximal PPARγ-driven reporter activity", "setting": "human PPARγ1; fold-change from DN-control, 24 hr, rosiglitazone at 1 μM", "value": "7.5 ± 0.7", "unit": "fold"}, {"measurement": "alkaline phosphatase activity", "setting": "[8]", "value": "significantly suppressed"}, {"measurement": "cellularity (MTT)", "setting": "BMS2 cells [9]; 24 hr, as high as 40 μg/mL (90 μM) FM550, 40 μM TPP, 40 μg/mL (100 μM) ITP", "value": "no loss of cellularity"}, {"measurement": "cellularity (MTT)", "setting": "BMS2 cells [9]; 7 days, as high as 20 μg/mL (50 μM) FM550, 20 μM TPP, 10 μg/mL (30 μM) ITP", "value": "no loss of cellularity"}, {"measurement": "cellularity (MTT)", "setting": "BMS2 cells [9]; 12 days, as high as 10 μg/mL (20 μM) FM550 or 20 μM TPP", "value": "no loss of cellularity"}, {"measurement": "constitutive androstane receptor–mediated reporter activity", "setting": "[10]", "value": "activating"}, {"measurement": "perilipin expression", "setting": "[11]", "value": "induced the expression of perilipin"}, {"measurement": "Sp7 mRNA expression", "setting": "[12]", "value": "significant decrease in mRNA expression of Sp7"}, {"measurement": "glucocorticoid receptor–mediated reporter activity", "setting": "glucocorticoid receptor", "value": "antagonizing"}, {"measurement": "pregnane X receptor–mediated reporter activity", "setting": "pregnane X receptor", "value": "activating"}, {"measurement": "caspase-3 activity", "setting": "BMS2 cells [13]", "value": "no increase in caspase-3 activity"}, {"measurement": "pIC50", "setting": "[1]", "value": 4.42}, {"measurement": "pKd", "setting": "[1]", "value": 4.70}]}, {"smiles": "CCCCC(CC)COC(=O)c1c(Br)c(Br)c(Br)c(Br)c1C(=O)O", "note": "(centres unmarked) [mono-(2-ethylhexyl) tetrabromophthalate]", "values": [{"measurement": "PPARγ-mediated gene transcription", "setting": "PPARγ", "value": "activated"}, {"measurement": "adipocyte differentiation", "setting": "NIH 3T3L1 cells", "value": "induced adipocyte differentiation"}, {"measurement": "PPARα-mediated gene transcription", "setting": "PPARα", "value": "activated"}]}]}
